# Assay results published in the supplement of paper PMC10307832.
# Tests used:
# Experiment in all cases: relative viability (nuclei count vs DMSO), 5 days (fraction); higher = more cells survive
# Seliciclib + Lapatinib = compound: CC[C@H](CO)Nc1nc(NCc2ccccc2)c2ncn(C(C)C)c2n1 [Seliciclib] + CS(=O)(=O)CCNCc1ccc(-c2ccc3ncnc(Nc4ccc(OCc5cccc(F)c5)c(Cl)c4)c3c2)o1 [Lapatinib] (partner 2 µM)
# In short: (§1)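 Relative viability equals treated-well nuclei counts divided by vehicle-well nuclei counts. Counts came from 4× images of lung cancer cell lines grown in 1536-well plates for 5 days after pin-tool dosing on the day after seeding. Dosing used one drug alone or a fixed anchor-drug dose plus five library-drug doses (not always all listed) in √10 steps, and values are medians of duplicate plates.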
# Seliciclib + Crizotinib = compound: CC[C@H](CO)Nc1nc(NCc2ccccc2)c2ncn(C(C)C)c2n1 [Seliciclib] + C[C@@H](Oc1cc(-c2cnn(C3CCNCC3)c2)cnc1N)c1c(Cl)ccc(F)c1Cl [Crizotinib] (partner 1 µM)
# In short: as §1
# Seliciclib + Tozasertib = compound: CC[C@H](CO)Nc1nc(NCc2ccccc2)c2ncn(C(C)C)c2n1 [Seliciclib] + Cc1cc(Nc2cc(N3CCN(C)CC3)nc(Sc3ccc(NC(=O)C4CC4)cc3)n2)n[nH]1 [Tozasertib] (partner 0.1 µM)
# In short: as §1
# Seliciclib + Decitabine = compound: CC[C@H](CO)Nc1nc(NCc2ccccc2)c2ncn(C(C)C)c2n1 [Seliciclib] + Nc1ncn([C@H]2C[C@H](O)[C@@H](CO)O2)c(=O)n1 [Decitabine] (partner 2 µM)
# In short: as §1
Cell Line,relative viability (Seliciclib + Lapatinib; first compound 0.08 µM),relative viability (Seliciclib + Lapatinib; first compound 0.253 µM),relative viability (Seliciclib + Lapatinib; first compound 0.8 µM),relative viability (Seliciclib + Lapatinib; first compound 2.53 µM),relative viability (Seliciclib + Lapatinib; first compound 8 µM),relative viability (Seliciclib + Crizotinib; first compound 0.08 µM),relative viability (Seliciclib + Crizotinib; first compound 0.253 µM),relative viability (Seliciclib + Crizotinib; first compound 0.8 µM),relative viability (Seliciclib + Crizotinib; first compound 2.53 µM),relative viability (Seliciclib + Crizotinib; first compound 8 µM),relative viability (Seliciclib + Tozasertib; first compound 0.08 µM),relative viability (Seliciclib + Tozasertib; first compound 0.253 µM),relative viability (Seliciclib + Tozasertib; first compound 0.8 µM),relative viability (Seliciclib + Tozasertib; first compound 2.53 µM),relative viability (Seliciclib + Tozasertib; first compound 8 µM),relative viability (Seliciclib + Decitabine; first compound 0.08 µM),relative viability (Seliciclib + Decitabine; first compound 0.253 µM),relative viability (Seliciclib + Decitabine; first compound 0.8 µM),relative viability (Seliciclib + Decitabine; first compound 2.53 µM),relative viability (Seliciclib + Decitabine; first compound 8 µM)
NCI-H23,0.97,1.08,1.19,0.657,0.851,0.454,0.427,0.432,0.42,0.48,0.424,0.368,0.379,0.426,0.322,0.278,0.293,0.316,0.288,0.268
NCI-H322M,0.67,0.641,0.509,0.443,0.457,0.85,1.06,0.839,1.06,0.554,0.49,0.497,0.474,0.462,0.435,0.782,0.715,0.715,0.668,0.614
NCI-H358,0.429,0.5,0.407,0.305,0.253,0.54,0.709,0.546,0.544,0.246,0.11,0.0892,0.112,0.104,0.11,0.204,0.216,0.221,0.193,0.176
NCI-H460,0.895,1.04,0.922,1.34,0.826,0.787,0.821,0.837,1.36,0.722,0.525,0.561,0.502,0.465,0.363,0.455,0.57,0.446,0.591,0.388
NCI-H520,0.858,0.727,0.831,0.933,0.674,0.85,0.552,0.638,0.921,0.589,0.47,,0.406,0.459,0.573,0.522,0.486,0.537,0.632,0.643
NCI-H596,0.969,0.831,1.1,1.21,0.939,0.959,0.759,0.981,1.05,0.988,0.862,,0.849,1.03,0.865,0.951,,0.961,1.03,0.828
NCI-H647,1.25,1.11,1.07,1.28,1.01,1.07,1.01,1.04,1.29,0.852,0.278,,0.262,0.348,0.303,0.314,0.235,0.562,0.453,0.452
NCI-H650,0.953,1.12,1.1,,0.765,0.65,0.713,0.84,,0.543,0.693,0.782,0.704,0.464,0.584,0.333,0.299,0.306,0.295,0.332
NCI-H661,0.522,0.463,0.473,0.452,0.391,0.98,1.12,0.939,,0.894,0.338,0.362,0.373,0.359,0.355,0.552,0.597,0.549,0.511,0.435
